Values of other authors as cited in patent US6887842B1, “Modulating a pharmacokinetic property of a drug by administering a bifunctional molecule containing the drug” (The Board of Trustees of the Leland Stanford Junior …, priority 1999, dated 2005).
Read-outs that look alike come from different tables or passages of the source. Values belong to the compound of their own block, whether it stands above or below them.

Columns and labels:
albumin = albumin (Homo sapiens, UniProt P02768)
[1] = in vivo
[2] = in vivo; remark: listed apart in the source
[3] = in vivo; remark: listed apart in the source

Sequence of albumin (P02768 25-609, species assumed): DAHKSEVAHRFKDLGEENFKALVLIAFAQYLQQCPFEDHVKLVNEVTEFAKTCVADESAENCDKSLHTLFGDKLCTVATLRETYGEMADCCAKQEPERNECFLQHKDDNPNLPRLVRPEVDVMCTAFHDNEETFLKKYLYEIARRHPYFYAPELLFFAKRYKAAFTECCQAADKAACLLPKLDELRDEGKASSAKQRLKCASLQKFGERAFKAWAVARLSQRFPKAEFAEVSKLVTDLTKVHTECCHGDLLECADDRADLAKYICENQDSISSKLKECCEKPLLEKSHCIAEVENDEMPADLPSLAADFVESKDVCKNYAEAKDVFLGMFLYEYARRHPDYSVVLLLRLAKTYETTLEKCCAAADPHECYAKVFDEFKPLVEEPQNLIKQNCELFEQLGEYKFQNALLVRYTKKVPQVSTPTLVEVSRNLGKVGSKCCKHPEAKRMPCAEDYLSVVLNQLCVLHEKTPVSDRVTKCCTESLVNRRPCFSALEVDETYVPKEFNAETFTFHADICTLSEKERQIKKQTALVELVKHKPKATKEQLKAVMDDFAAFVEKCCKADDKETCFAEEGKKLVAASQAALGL

- degree of binding to albumin (albumin; plasma): extensive binding to albumin
Compound: COc1ccc2cc([C@H](C)C(=O)O)ccc2c1 [naproxen]

- hepatic first-pass clearance [1]: extensive hepatic first-pass clearance
Compound: Sc1ncnc2nc[nH]c12 [mercaptopurine]

Compound: FK506
- half-life [2]: 30 h

- hepatic first-pass clearance [1]: extensive hepatic first-pass clearance
Compound: CC[C@H](C)C(=O)O[C@H]1C[C@H](O)C=C2C=C[C@H](C)[C@H](CC[C@@H](O)C[C@@H](O)CC(=O)O)[C@H]21 [pravastatin]

- hepatic first-pass clearance [1]: extensive hepatic first-pass clearance
Compound: COc1ccc([C@@H]2Sc3ccccc3N(CCN(C)C)C(=O)[C@@H]2OC(C)=O)cc1 [diltiazem]

- degree of binding to albumin (albumin; plasma): extensively bound to albumin
Compound: CN(C)CCCN1c2ccccc2Sc2ccc(Cl)cc21 [chlorpromazine]

- hepatic first-pass clearance [1]: extensive hepatic first-pass clearance
Compound: CC[C@H](C)C(=O)O[C@H]1C[C@@H](C)C=C2C=C[C@H](C)[C@H](CC[C@@H]3C[C@@H](O)CC(=O)O3)[C@H]21 [lovastatin]

- half-life [2]: 60 h
Compound: CO[C@H]1C[C@@H]2CC[C@@H](C)[C@@](O)(O2)C(=O)C(=O)N2CCCC[C@H]2C(=O)O[C@H]([C@H](C)C[C@@H]2CC[C@@H](O)[C@H](OC)C2)CC(=O)[C@H](C)/C=C(\C)[C@@H](O)[C@@H](OC)C(=O)[C@H](C)C[C@H](C)/C=C/C=C/C=C/1C [rapamycin]

Compound: C=CCN1CC[C@]23c4c5ccc(O)c4O[C@H]2C(=O)CC[C@@]3(O)[C@H]1C5 [naloxone]
- hepatic first-pass clearance [1]: extensive hepatic first-pass clearance

- degree of binding to albumin (albumin): extensively bound to albumin
Compound: Cc1noc(NS(=O)(=O)c2ccc(N)cc2)c1C [Sulfisoxazole]
- distribution (extracellular space) [3]: found almost exclusively in the extracellular space

- half-life [2]: 2 to 3 h
Compound: Cc1ccc2nc(N)[nH]c(=O)c2c1Sc1ccncc1 [AG 337]
